One test relates to HeLa cells. Put plainly: Annexin V-FITC / propidium iodide flow cytometry, HeLa. The test is classed as cell-based. The following applies: 200 µM, 24 h, non-treated control 5.4%. On the procedure: (§1) HeLa, U87, BICR18, EUFA30 cell lines were cultured in DMEM medium (Life Technology) supplemented with 10% fetal bovine serum (Life Technology) and 0.1% antibiotics, penicillin and streptomycin (Life Technology). Cells were grown in a humidified atmosphere of CO2/air (5/95%) at 37 °C.
(§2) The Annexin V-FITC apoptosis detection kit (BD Biosciences) was used to detect apoptosis by flow cytometry. Cells were seeded at Petri dishes, cultured for 18 h with tested agents applied for 24 h. DMSO was added as the non-treated control and camptothecin (CPT) as the positive control. Subsequently, cells were washed with PBS, resuspended in binding buffer at a concentration of 2 × 10^6 cells/mL, and anti-Annexin V FITC-conjugated antibody and propidium iodide were added to 100 µL aliquots. The mixtures were incubated for 15 min at room temperature, supplemented with binding buffer to 500 µL and processed by BD FACSCalibur (BD Biosciences). Data were analyzed in Flowing Software version 2.5.1 (Flowing Software, http://www.uskonaskel.fi/flowingsoftware).
In general terms: In flow cytometry, cells or beads pass a laser one at a time.

The subject of test [1] is HeLa cells (cervix adenocarcinoma). In words: Alamar Blue cytotoxicity assay, HeLa. The class given is cell-based. The following applies: Homo sapiens; for IC50: read-out: IC50 based on survival of cells; for inhibition at 300 µM: bracketed values, read-out: proliferation inhibition expressed as a percentage at highest concentration used. The method, then: as §1
(§3) Exponentially growing cells were seeded onto a 96-well plate at the density of 2 × 10^3 cells/well, cultured for 18 h, and treated with newly synthesized derivatives at concentrations 1–300 µM, or with DMSO as a control, for 24 or 48 h. Alamar Blue (Invitrogen) was added accordingly to manufacturer protocol. After 4 h, light emission at 590 nm was measured with excitation at 560 nm using a scanning multiwell spectrophotometer (DTX 880, Beckman Coulter). The experiments were carried out at least three times with three replicates for each inhibitor concentration. After background subtraction, inhibition rate, IC50 was calculated as the concentration of the component inhibiting cell growth by 50%. All the calculations were performed using Origin 9.0 software.

Test [2] deals with EUFA30, HeLa, BICR18, U87 cells. Put plainly: Alamar Blue cytotoxicity assay, statements over all tested cell lines. The class given is cell-based. The following applies: Homo sapiens, concentrations 1-300 µM, group range = lowest to highest value, read-out: IC50 across the tested cell lines. On the procedure:
as §1, §3
Background: The colour change of resazurin is a common sign of viable cells or microbes.

The subject of test [3] is U87 cells (human primary glioblastoma). In words: Alamar Blue cytotoxicity assay, U87. The class given is cell-based. The following applies: U-87 MG; for IC50: read-out: IC50 based on survival of cells; for inhibition at 300 µM: bracketed values, read-out: proliferation inhibition expressed as a percentage at highest concentration used. The method, then: as §1, §3
Test [4] concerns EUFA30 cells (non-cancerous human fibroblasts). Put plainly: Alamar Blue cytotoxicity assay, EUFA30. The class given is cell-based. The following applies: Fibroblast; for IC50: read-out: IC50 based on survival of cells; for inhibition at 300 µM: bracketed values, read-out: proliferation inhibition expressed as a percentage at highest concentration used. On the procedure:
as §1, §3

In test [5] the test system is BICR18 cells (laryngeal squamous cell carcinoma). Put plainly: Alamar Blue cytotoxicity assay, BICR18. As to conditions: for IC50: read-out: IC50 based on survival of cells; for inhibition at 300 µM: bracketed values, read-out: proliferation inhibition expressed as a percentage at highest concentration used. The class given is cell-based. On the procedure:
as §1, §3

Another test has as its system EUFA30 cells. Put plainly: Annexin V-FITC / propidium iodide flow cytometry, EUFA30. The class given is cell-based, human. The following applies: EUFA30, 200 µM, 24 h; for dead cell fraction: early apoptosis: non-treated control 0.3%; for dead cell fraction: late apoptosis: non-treated control 0.4%; for dead cell fraction: necrosis: non-treated control 5.7%. On the procedure: as §1, §2

Where [6] appears, read: BICR18, 48 h of treatment, N.A. = not active.

Read-outs that look alike come from different tables or passages of the source.

Broadly, the IC50 is the midpoint of a concentration-inhibition curve. `CN1C(=O)c2c(Cl)c(Cl)c(Cl)c(Cl)c2C(=O)Nc2ccccc21` [Compound 3h, 7,8,9,10-tetrachloro-5-methyl-5,12-dihydrodibenzo[b,f][1,4]diazocine-6,11-dione]: in the test with HeLa cells, the “number of necrotic cells” value came to 15.3%. The 50% inhibitory concentration (IC50) in test [1] (24 h of treatment) was 132 ± 6 µM; in test [1] (48 h of treatment, N.A. = not active), 251 ± 5.1 µM; in test [2], 93.7 to 323 µM; in test [3] (U87, 24 h of treatment), 97.1 ± 13.2 µM; in test [3] (U87, 48 h of treatment, N.A. = not active) it was 294 ± 22.4 µM; in test [4] (EUFA30, 24 h of treatment) it was 144 ± 10.6 µM. Also, the IC50 in test [4] (EUFA30, 48 h of treatment, N.A. = not active) was found to be 153 ± 4.1 µM; in test [5] (BICR18, 24 h of treatment), 93.7 ± 5.2 µM; in test [5] (setting [6]), 178 ± 3 µM. Further, in the test with EUFA30 cells, the “dead cell fraction: early apoptosis” value was 9.0%. In addition, the “dead cell fraction: late apoptosis” value in the test on EUFA30 cells was 1.8%. Besides, the “dead cell fraction: necrosis” value with EUFA30 cells turned out to be 15.6%.
`CC(=O)N1C(=O)c2ccccc2C(=O)N(Cc2ccccc2)c2ccccc21` [Compound 3o, 5-acetyl-12-benzyl-5,12-dihydrodibenzo[b,f][1,4]diazocine-6,11-dione]: the “number of necrotic cells” value in the test with HeLa cells is reported as 27.7%. Moreover, the IC50 is 169 ± 13.4 µM in test [1] (24 h of treatment); 93.7 to 323 µM in test [2]; 240 ± 6.1 µM in test [3] (U87, 24 h of treatment); 155 ± 14.6 µM in test [4] (EUFA30, 24 h of treatment); 121 ± 11.4 µM in test [5] (BICR18, 24 h of treatment); 294 ± 3.2 µM in test [5] (setting [6]). Besides, the inhibition at 300 µM in test [1] (48 h) turned out to be 33.4%; in test [3] (U87, 48 h) it was 33.8%; in test [4] (EUFA30, 48 h), 41.8%. In addition, the “dead cell fraction: early apoptosis” value in the test with EUFA30 cells is reported as 9.5%. In the test on EUFA30 cells, the “dead cell fraction: late apoptosis” value turned out to be 6.4%. Further, the “dead cell fraction: necrosis” value in the test with EUFA30 cells is recorded as 0.8%.
As for `CN1C(=O)c2cc(Cl)c(Cl)cc2C(=O)Nc2ccccc21` [Compound 3g, 8,9-dichloro-5-methyl-5,12-dihydrodibenzo[b,f][1,4]diazocine-6,11-dione], the “number of necrotic cells” value in the test on HeLa cells is given as 8.8%. For the same molecule, the inhibition at 300 µM in test [1] (24 h) was 43.1%; in test [1] (48 h) it was 5.3%; in test [3] (U87, 48 h), 2.4%; in test [4] (EUFA30, 24 h), 41.6%; in test [4] (EUFA30, 48 h) it was 29.5%; in test [5] (BICR18, 48 h) it was 12.3%. The IC50 in test [2] is 93.7 to 323 µM; in test [3] (U87, 24 h of treatment), 323 ± 23.9 µM; in test [5] (BICR18, 24 h of treatment) it was 266 ± 27.6 µM. Besides, the “dead cell fraction: early apoptosis” value in the test on EUFA30 cells was determined as 5.0%. In addition, in the test on EUFA30 cells, the “dead cell fraction: late apoptosis” value is 1.5%. In addition, in the test on EUFA30 cells, the “dead cell fraction: necrosis” value was determined as 6.8%.
Turning to `CN1C(=O)c2ccccc2C(=O)Nc2cc(Cl)c(Cl)cc21` [Compound 3f, 2,3-dichloro-5-methyl-5,12-dihydrodibenzo[b,f][1,4]diazocine-6,11-dione], the “number of necrotic cells” value with HeLa cells was found to be 15.3%. Besides, the IC50 in test [1] (24 h of treatment) is 298 ± 11 µM; in test [2] it was 93.7 to 323 µM; in test [3] (U87, 24 h of treatment), 207 ± 23.6 µM; in test [4] (EUFA30, 24 h of treatment), 320 ± 36 µM. The inhibition at 300 µM was 7.8% in test [1] (48 h); 29.9% in test [3] (U87, 48 h); 19.1% in test [4] (EUFA30, 48 h); 47.5% in test [5] (BICR18, 24 h); 7.6% in test [5] (BICR18, 48 h). In addition, the “dead cell fraction: early apoptosis” value in the test with EUFA30 cells is given as 6.9%. The “dead cell fraction: late apoptosis” value in the test on EUFA30 cells was 1.6%. In addition, in the test with EUFA30 cells, the “dead cell fraction: necrosis” value is recorded as 4.3%.
`CCOC(=O)CN1C(=O)c2cc(Cl)c(Cl)cc2C(=O)N(C)c2ccccc21` [Compound 3n, ethyl 2-(8,9-dichloro-12-methyl-6,11-dioxo-11,12-dihydrodibenzo[b,f][1,4]diazocin-5(6H)-yl)acetate]: in the test with HeLa cells, the “number of necrotic cells” value worked out at 11.3%. Besides, the IC50 in test [1] (24 h of treatment) was 311 ± 14.1 µM; in test [2] it was 93.7 to 323 µM. The inhibition at 300 µM in test [3] (U87, 24 h) was 30.7%; in test [4] (EUFA30, 24 h), 41.5%; in test [5] (BICR18, 24 h), 20.9%. Also, the “dead cell fraction: early apoptosis” value with EUFA30 cells stood at 7.8%. The “dead cell fraction: late apoptosis” value in the test on EUFA30 cells worked out at 1.4%. The “dead cell fraction: necrosis” value in the test with EUFA30 cells is reported as 1.9%.

The values are drawn from PMC7356613, “Unsymmetrically-Substituted 5,12-dihydrodibenzo[b,f][1,4]diazocine-6,11-dione Scaffold—A Useful Tool for Bioactive Molecules Design” (Molecules, 2020).
